Here are results for one compound from patent publication US11208405B2, “Pyrrole derivatives as PLK1 inhibitors” (SENTINEL ONCOLOGY LIMITED, priority 2017, dated 2021).

The IC50 is the midpoint of a concentration-inhibition curve. A lower IC50 goes with greater potency in that assay. In general, Tmax refers to the time from dosing to the highest level.

Data set [1] concerns glioblastoma cell line 906868. Briefly: Glioblastoma cancer cell viability, cell line 906868. Format: cell-based. As to the method:
(§1) Assay to Measure the Effects of Compounds of the Invention on Glioblastoma Cancer Cell Viability
(§2) The compound of Example 33 was tested for inhibitory activity against the glioblastoma cell lines in Table 7 below.

The next data set has as its target T1, IKBKB (Homo sapiens, UniProt O14920).
T1 construct: purchased DiscoverX
Briefly: Kinase selectivity assay (DiscoverX KinomeScreen), IKBKB. Format: binding. The note with it: read-out: % Control. As to the method: (§3) The compound of Example 33 was tested for off-target activity against a panel of fifty five kinases bearing functional or structural similarity to PLK1 at a concentration of 5 μM using the DiscoverX KinomeScreen assay.

The target in a further data set is T2, STK35 (Homo sapiens, UniProt Q8TDR2).
T2 construct: purchased DiscoverX
Kind of data set: Kinase selectivity assay (DiscoverX KinomeScreen), STK35. It is filed as binding. The note with it: STK35, 5 μM; read-out: % Control. As to the method:
as §3

Another data set has as its target T3, CDK2 (Homo sapiens, UniProt P24941).
T3 construct: purchased DiscoverX
Kind of data set: Kinase selectivity assay (DiscoverX KinomeScreen), CDK2. It is filed as binding. The note with it: CDK2, 5 μM; read-out: % Control. As to the method: as §3

For data set [2], the system named is glioblastoma cell line 1240170. Kind of data set: Glioblastoma cancer cell viability, cell line 1240170. Format: cell-based. As to the method: as §1, §2
The next data set has as its system cytochrome P450 1A. Kind of data set: Cytochrome P450 inhibition, 1A. It is filed as in vitro ADME.
The target in the next data set is T4, PLK1 (Homo sapiens, UniProt P53350).
T4 construct: purchased DiscoverX
Kind of data set: Kinase selectivity assay (DiscoverX KinomeScreen), PLK1. It is filed as binding. The note with it: PLK1, 5 μM; read-out: % Control. Here is the method: as §3

The target of the next data set is T5, NEK2 (Homo sapiens, UniProt P51955).
T5 construct: purchased DiscoverX
Briefly: Kinase selectivity assay (DiscoverX KinomeScreen), NEK2. It is filed as binding. The note with it: NEK2, 5 μM; read-out: % Control. As to the method: as §3

The next data set deals with HCT116 xenograft tumours. Kind of data set: In vivo anti-cancer activity in mice bearing HCT116 tumours. The following applies: oral 50 mg/kg or 200 m/kg on days 1, 3, 7, 10 and 13, dose of the T/C value not stated. Here is the method: In Vivo Anti-Cancer Activity in Mice Bearing HCT116 Tumours
Mice bearing HCT116 xenograft tumours were give oral dosages of either 50 mg/kg or […] on days 1, 3, 7, 10 and 13 and the tumour volumes measured at days 1, 3, 5, 8, 10, 12 and 15. Tumour volumes in a control group of tumour-bearing mice, who had received vehicle only at the same time points were also measured.

The target of the next data set is T6, NEK5 (Homo sapiens, UniProt Q6P3R8).
T6 construct: purchased DiscoverX
Kind of data set: Kinase selectivity assay (DiscoverX KinomeScreen), NEK5. The following applies: NEK5, 5 μM; read-out: % Control. Format: binding. Here is the method: as §3

The target in the next data set is cytochrome P450 2C19 (Homo sapiens, UniProt P33261). Briefly: Cytochrome P450 inhibition, 2C19. It is filed as in vitro ADME.
In another data set the target is T7, WNK3 (Homo sapiens, UniProt Q9BYP7).
T7 construct: purchased DiscoverX
Kind of data set: Kinase selectivity assay (DiscoverX KinomeScreen), WNK3. Format: binding. The note with it: WNK3, 5 μM; read-out: % Control. As to the method: as §3

The target of another data set is T8, GAK (Homo sapiens, UniProt O14976).
T8 construct: purchased DiscoverX
Briefly: Kinase selectivity assay (DiscoverX KinomeScreen), GAK. The note with it: read-out: % Control. Format: binding. Here is the method:
as §3

The target of a further data set is T9, TLK1 (Homo sapiens, UniProt Q9UKI8).
T9 construct: purchased DiscoverX
Kind of data set: Kinase selectivity assay (DiscoverX KinomeScreen), TLK1. Format: binding. The following applies: TLK1, 5 μM; read-out: % Control. Here is the method: as §3

The next data set deals with T10, NEK9 (Homo sapiens, UniProt Q8TD19).
T10 construct: purchased DiscoverX
Briefly: Kinase selectivity assay (DiscoverX KinomeScreen), NEK9. Format: binding. The following applies: NEK9, 5 μM; read-out: % Control. Here is the method: as §3

The test system of data set [3] is glioblastoma cell line 909750. Briefly: Glioblastoma cancer cell viability, cell line 909750. Format: cell-based. Here is the method: as §1, §2
The nature of data set [4]: Determination of brain exposure following oral dosing in mice. It is filed as in vivo, male CD-1 mice. The note with it: male, CD-1, mouse, 10 mg/Kg PO. As to the method: Determination of Brain Exposure Following Oral Dosing in Mice An experiment was carried out on the compound of Example 33 to determine the extent of its brain penetration following oral dosing in mice. The following protocol was used. 15 male CD-1 mice (n=3/time point) were dosed perorally with the compound of Example 33 (10 mg/kg; dose concentration 1 mg/ml; dose volume 10 mL/kg). […] Animals were housed in pre-assigned housing cages until sampling. Appropriate samples were taken at […] time points and stored immediately at −20° C. Homogenisation and protein precipitation with acetonitrile was carried out for plasma and brain. Analysis was carried out with tandem mass spectrometry using electrospray ionisation. The results of the experiment are shown in FIG. 2 and in Table 10 below.

Another data set has as its target T11, AURKC (Homo sapiens, UniProt Q9UQB9).
T11 construct: purchased DiscoverX
Kind of data set: Kinase selectivity assay (DiscoverX KinomeScreen), AURKC. It is filed as binding. The following applies: read-out: % Control. As to the method:
as §3

Data set [5] deals with glioblastoma cell line 908144. Briefly: Glioblastoma cancer cell viability, cell line 908144. Format: cell-based. Here is the method:
as §1, §2

Each structure is given as a SMILES string. Where a name gives a salt, the structure may show the parent alone. Read-outs that look alike come from different tables or passages of the source. Some results are limits rather than exact numbers.

T6 sequence (Q6P3R8 whole entry): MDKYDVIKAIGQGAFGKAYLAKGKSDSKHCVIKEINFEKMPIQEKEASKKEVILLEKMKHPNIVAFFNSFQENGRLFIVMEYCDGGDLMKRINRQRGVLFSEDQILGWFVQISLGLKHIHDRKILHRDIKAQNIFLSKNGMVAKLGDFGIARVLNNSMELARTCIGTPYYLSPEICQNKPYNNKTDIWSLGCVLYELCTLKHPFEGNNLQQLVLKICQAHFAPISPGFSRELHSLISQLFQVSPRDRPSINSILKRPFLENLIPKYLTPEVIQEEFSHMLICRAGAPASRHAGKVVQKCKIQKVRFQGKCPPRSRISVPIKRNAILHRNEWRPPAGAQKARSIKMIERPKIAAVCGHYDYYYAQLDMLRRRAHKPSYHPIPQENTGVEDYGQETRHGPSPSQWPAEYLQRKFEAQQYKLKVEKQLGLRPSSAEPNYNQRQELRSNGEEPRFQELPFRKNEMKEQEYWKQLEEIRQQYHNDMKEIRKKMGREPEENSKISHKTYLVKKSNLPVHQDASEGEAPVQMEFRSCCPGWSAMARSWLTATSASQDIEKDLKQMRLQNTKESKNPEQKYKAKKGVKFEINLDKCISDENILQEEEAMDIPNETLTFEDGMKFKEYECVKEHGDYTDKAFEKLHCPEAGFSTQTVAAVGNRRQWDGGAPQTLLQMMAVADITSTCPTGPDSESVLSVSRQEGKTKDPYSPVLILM
T5 sequence (P51955 whole entry): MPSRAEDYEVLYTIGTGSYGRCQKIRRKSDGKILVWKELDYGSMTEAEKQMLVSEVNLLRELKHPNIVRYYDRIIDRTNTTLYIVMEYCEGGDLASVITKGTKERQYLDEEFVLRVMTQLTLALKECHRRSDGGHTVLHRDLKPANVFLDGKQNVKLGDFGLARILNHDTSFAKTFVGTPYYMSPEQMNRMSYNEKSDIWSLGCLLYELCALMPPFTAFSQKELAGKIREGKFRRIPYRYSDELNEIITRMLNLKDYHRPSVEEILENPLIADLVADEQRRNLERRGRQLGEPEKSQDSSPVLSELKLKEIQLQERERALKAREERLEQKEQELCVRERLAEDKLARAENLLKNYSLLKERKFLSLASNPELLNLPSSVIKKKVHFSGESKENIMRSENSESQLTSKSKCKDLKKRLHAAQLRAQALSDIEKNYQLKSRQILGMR
T1 sequence (O14920 whole entry): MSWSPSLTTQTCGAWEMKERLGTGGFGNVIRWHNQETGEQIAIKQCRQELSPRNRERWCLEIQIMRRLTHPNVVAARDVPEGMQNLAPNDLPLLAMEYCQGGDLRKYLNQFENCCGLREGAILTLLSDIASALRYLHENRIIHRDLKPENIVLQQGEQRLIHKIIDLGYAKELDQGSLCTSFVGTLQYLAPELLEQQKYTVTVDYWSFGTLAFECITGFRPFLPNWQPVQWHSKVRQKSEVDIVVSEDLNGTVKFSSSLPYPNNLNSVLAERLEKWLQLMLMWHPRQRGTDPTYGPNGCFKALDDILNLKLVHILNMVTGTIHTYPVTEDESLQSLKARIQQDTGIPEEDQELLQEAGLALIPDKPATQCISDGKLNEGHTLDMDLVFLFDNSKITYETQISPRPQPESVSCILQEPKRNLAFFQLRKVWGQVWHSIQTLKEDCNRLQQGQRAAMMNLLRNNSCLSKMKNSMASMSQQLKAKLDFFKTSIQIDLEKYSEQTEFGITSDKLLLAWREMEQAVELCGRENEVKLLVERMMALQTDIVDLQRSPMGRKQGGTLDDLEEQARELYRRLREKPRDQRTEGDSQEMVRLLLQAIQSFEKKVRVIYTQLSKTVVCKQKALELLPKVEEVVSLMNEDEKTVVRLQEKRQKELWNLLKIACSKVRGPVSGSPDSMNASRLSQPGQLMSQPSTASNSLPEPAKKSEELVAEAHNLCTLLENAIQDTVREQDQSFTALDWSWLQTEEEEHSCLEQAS
T8 sequence (O14976 whole entry): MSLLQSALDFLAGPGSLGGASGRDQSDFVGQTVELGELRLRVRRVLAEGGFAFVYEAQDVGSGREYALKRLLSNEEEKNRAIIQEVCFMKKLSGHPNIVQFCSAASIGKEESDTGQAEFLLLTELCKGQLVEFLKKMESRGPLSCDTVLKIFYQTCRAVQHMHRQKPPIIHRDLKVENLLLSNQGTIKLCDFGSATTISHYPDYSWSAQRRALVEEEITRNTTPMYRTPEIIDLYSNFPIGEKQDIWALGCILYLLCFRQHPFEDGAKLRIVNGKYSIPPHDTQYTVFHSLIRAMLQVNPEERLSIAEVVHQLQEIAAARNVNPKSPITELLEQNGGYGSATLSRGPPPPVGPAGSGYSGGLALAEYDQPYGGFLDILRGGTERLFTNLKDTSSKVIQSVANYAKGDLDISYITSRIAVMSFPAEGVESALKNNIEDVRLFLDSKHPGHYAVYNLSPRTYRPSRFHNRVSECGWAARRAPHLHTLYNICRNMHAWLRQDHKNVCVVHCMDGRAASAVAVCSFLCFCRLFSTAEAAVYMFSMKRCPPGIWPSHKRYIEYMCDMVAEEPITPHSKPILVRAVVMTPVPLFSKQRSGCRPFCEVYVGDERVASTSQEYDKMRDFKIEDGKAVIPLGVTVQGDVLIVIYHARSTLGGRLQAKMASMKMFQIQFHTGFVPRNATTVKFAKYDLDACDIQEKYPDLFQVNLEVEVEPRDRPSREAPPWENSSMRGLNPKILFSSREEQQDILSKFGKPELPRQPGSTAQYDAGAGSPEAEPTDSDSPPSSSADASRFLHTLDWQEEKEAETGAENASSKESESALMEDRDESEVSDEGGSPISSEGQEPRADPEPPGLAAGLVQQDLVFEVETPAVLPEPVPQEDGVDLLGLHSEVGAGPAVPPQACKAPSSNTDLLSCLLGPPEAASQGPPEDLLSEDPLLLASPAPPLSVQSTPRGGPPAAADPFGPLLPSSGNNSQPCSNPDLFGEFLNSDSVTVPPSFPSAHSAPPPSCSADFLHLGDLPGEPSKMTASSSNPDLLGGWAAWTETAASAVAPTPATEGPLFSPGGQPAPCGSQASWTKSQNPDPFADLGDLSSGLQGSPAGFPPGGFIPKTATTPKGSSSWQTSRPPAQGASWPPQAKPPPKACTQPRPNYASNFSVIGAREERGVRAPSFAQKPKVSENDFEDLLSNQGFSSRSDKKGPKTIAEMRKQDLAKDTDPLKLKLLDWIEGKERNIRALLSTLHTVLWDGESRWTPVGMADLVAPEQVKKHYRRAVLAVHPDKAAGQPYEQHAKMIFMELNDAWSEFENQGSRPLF
T2 sequence (Q8TDR2 whole entry): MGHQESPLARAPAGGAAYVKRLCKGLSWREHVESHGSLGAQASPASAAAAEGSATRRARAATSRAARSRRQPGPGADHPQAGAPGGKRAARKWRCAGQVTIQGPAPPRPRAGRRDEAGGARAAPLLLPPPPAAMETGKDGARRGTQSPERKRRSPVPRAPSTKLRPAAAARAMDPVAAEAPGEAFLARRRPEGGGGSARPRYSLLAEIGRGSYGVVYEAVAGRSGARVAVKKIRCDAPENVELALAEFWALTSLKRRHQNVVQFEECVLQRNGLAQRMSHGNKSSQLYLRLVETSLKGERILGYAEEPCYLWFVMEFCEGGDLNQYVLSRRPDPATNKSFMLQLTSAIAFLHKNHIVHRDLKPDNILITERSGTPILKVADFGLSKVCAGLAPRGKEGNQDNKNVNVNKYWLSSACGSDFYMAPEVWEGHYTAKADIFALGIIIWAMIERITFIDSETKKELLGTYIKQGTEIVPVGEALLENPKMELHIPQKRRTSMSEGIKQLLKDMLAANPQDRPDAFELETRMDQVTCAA
T11 sequence (Q9UQB9 whole entry): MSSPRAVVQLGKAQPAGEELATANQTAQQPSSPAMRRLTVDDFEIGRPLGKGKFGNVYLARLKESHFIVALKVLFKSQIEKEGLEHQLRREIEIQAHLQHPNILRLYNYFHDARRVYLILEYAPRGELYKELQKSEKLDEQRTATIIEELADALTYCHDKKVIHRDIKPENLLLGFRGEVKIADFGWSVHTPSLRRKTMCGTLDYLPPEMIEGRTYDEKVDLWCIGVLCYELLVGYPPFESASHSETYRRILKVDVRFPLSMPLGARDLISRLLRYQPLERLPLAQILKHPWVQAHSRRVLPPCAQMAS
T9 sequence (Q9UKI8 whole entry): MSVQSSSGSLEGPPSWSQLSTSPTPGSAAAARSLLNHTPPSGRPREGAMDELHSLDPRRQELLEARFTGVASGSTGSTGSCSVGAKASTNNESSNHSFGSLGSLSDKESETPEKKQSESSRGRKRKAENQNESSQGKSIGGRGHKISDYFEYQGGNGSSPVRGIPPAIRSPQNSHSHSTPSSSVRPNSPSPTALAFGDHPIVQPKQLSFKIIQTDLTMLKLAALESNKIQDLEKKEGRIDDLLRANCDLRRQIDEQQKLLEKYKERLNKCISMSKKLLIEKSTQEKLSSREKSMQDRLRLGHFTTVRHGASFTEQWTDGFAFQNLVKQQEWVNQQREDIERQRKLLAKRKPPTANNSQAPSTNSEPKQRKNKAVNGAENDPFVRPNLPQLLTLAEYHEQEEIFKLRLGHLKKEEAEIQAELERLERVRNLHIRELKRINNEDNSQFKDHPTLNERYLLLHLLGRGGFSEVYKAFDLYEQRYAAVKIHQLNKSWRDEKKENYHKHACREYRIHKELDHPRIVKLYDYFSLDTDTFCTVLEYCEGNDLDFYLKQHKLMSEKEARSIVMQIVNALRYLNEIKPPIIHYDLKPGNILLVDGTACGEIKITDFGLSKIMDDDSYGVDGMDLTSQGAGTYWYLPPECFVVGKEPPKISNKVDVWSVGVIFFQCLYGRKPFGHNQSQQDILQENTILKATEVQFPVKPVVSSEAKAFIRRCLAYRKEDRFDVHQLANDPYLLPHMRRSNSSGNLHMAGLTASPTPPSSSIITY

Consider `CN(C)CCNC(=O)c1ccc(-c2ccc(-c3ccc(Cl)cc3)n2-c2ccccc2C(F)(F)F)cc1` [Example 33, 4-[5-(4-chlorophenyl)-1-[2-(trifluoromethyl)phenyl]pyrrol-2-yl]-N-[2-(dimethylamino)ethyl]benzamide Hydrochloride], for which the IC50 in data set [1] is 252 nM; in data set [2], 363 nM; in [3], 929 nM; in [5], 2420 nM. Moreover, the remaining activity at 5 µM stood at 100% on IKBKB; 71% on STK35; 89% at CDK2; 100% at PLK1; 94% on NEK2; 99% on NEK5. For the same compound, the remaining activity at 5 µM came to 100% at WNK3; 100% on GAK; 99% on TLK1; 92% on NEK9; 85% on AURKC. Further, the “cytochrome P450 inhibition 1A” value with cytochrome P450 1A was above 10 µM. Also, in the data set with HCT116 xenograft tumours, the “effect on tumour growth (T/C)” value worked out at 48%. Further, the “cytochrome P450 inhibition 2C19” value on cytochrome P450 2C19 was above 10 µM. For the same compound, the AUC(0-t) in data set [4] (brain, read-out: AUClast (Brain)) is 31900 ng·h/mL; in data set [4] (plasma, read-out: AUClast (Plasma)), 5030 ng·h/mL. The Tmax in [4] (brain, read-out: Tmax (Brain)) is 24 h; in data set [4] (plasma, read-out: Tmax (Plasma)) it was 8 h.
